# Assay results: US10093673B2, “Tetracyclic pyridone compounds as antivirals” (Novartis AG, priority 2016, dated 2018)
# pEC50: −log10 of the molar value.
# How the values were obtained:
# [1] = High throughput solubility measurement in PBS; assay type: physicochemical; conditions: Cl-free PBS, aqueous buffer, thermodynamic from solid; PBS (phosphate-buffered saline), pH 6.8, 24 hours at room temperature
# Excerpt: The following table provides data for solubility of compounds of the invention in PBS (phosphate-buffered saline), using a standard solubility screening method.
# [2] = Pharmacokinetics in dog (iv and PO); assay type: in vivo
# [3] = Pharmacokinetics in mice (iv and PO); assay type: in vivo
# [4] = Pharmacokinetics in rat (iv and PO); assay type: in vivo
# HBsAg secretion = assay: HBsAg assay (ELISA of secreted HBsAg, HepG2-Clone42 cells); assay type: cell-based, HBV; conditions: Hepatitis B virus, read-out: HBsAg EC50, HepG2-Clone42 cells, HBsAg secretion reduced 50% vs DMSO control
# Procedure: HepG2-Clone42, a Tet-inducible HBV-expressing cell line with a stably integrated 1.3mer copy of the HBV ayw strain, was generated based on the Tet-inducible HepAD38 cell line with slight modifications. Ladner S K, et al., Antimicrobial Agents and Chemotherapy. 41(8):1715-1720 (1997). HepG2-Clone42 cells were cultured in DMEM/F-12+Glutamax™ (Life Technologies, Carlsbad, Calif., USA), supplemented with 10% fetal bovine serum (Life Technologies), G-418 (Corning, Manassas, Va., USA) at a final concentration of 0.5 mg/mL, and 5 μg/mL Doxycycline (Sigma, St. Louis, Mo., USA) and maintained in 5% CO2 at 37° C.
# HepG2-Clone42 cells were seeded in into black clear-bottom 96-well plates at a concentration of 6.0×10^4 cells/well. 24 hours post-seeding, the cells were treated with 200 μl/well of media containing five-fold serial dilutions of compounds in DMSO. DMSO alone was used as the no drug control. The final DMSO concentration in all wells was 0.5%.
# The HBsAg ELISA kit (Alpha Diagnostic International, San Antonio, Tex., USE, Catalog #4110) was used to determine the level (semi-quantitative) of secreted HBV sAg.
# The HBSAg ELISA assay was performed following the manufacturer's protocol as described.
# Step 1. Pipet 100 μL each of compound or DMSO treated samples into HBsAg ELISA plates. Seal plates and incubate at room temp for 60 minutes.
# Step 2. Aspirate samples and wash three times with Wash Buffer. Dispense 100μ of antibody-HRP conjugate to each well. Incubate at room temp for 30 minutes.
# Step 3. Aspirate samples and wash three times with Wash Buffer. Add 100 μL of TMB Substrate to all wells and incubate 15 minutes at room temp.
# Step 4. Dispense 100 μL of Stop Solution to each well. Measure absorbance of ELISA plate at 450 nm.
# EC50 values were determined as follows: • 1. Determine the percent of HBsAg secretion inhibition. Calculate the percent inhibition on of HBsAg secretion inhibition using the following equation: 100×(XC−MB)/(MD−MB) • where XC is the absorbance signal from compound-treated well; MB is average absorbance signal (background signal) for column 12 (no cells+HBsAg ELISA sample buffer) and MD is average absorbance signal from DMSO-treated wells. Then calculate EC50 values by non-linear regression using a four parameter curve logistic equation. The curve fit model employed is XLFit Dose Response One Site Model 204: y=(A+((B−A)/(1+(10^((C−x)*D))))) where A is the minimum y value, B is the maximum y value, C is the log EC50 value, and D is the slope factor. High Throughput Solubility Measurement • 1. Transfer 20 ul of 10 mM DMSO stock solution into a 96 deep well plate labeled as […] and 5 ul to another plate labeled as compound standard plate. • 2. Place the buffer plate in a Multi-Tainer MT-4 container (FTS Systems). Freeze dry overnight to remove DMSO. • 3. Add 100 ul of Cl-free PBS (pH 6.8) to the dried compound in the buffer plate and 95 ul of DMSO to the standard plate. • 4. The buffer plate is be sonicated in a water bath for 10 min. • 5. The two plates are then placed onto the VWR orbital shaker to equilibrate for 24 hours at room temperature. • 6. The buffer plate is centrifuged at 4000 rpm for 30 min. • 7. Transfer 10 ul aliquots of supernatant from the buffer plate to a sample plate and dilute 5 fold. • 8. Inject both compound standard and sample into the UPLC/UV/CLND/MS to generate multi detector qualitative and quantitive analytical data. • 9. Data was processed with Xcalibur. CLND equimolar response was used for measuring compound concentration of DMSO solution. UV270 nm or MS relative ratio was used for solubility determination.
# Nav1.5 = Nav1.5 (Homo sapiens (Human), UniProt Q14524); assay: Inhibition of cardiac sodium ion channel Nav1.5; assay type: biochemical
structure (smiles),measurement,setting,value
"COCCCOc1cc2c(cc1OC)-c1cc(=O)c(C(=O)O)cn1[C@H]1[C@@H]2OCC1(C)C [Compound 4.1, (3aR,12bR)-10-methoxy-11-(3-methoxypropoxy)-3,3-dimethyl-7-oxo-3,3a,7,12b-tetrahydro-2H-furo[3,2-c]pyrido[2,1-a]isoquinoline-6-carboxylic acid]",solubility at 24 h,[1],1600 µM
same,T1/2term.,[2],12.3 h
same,Cmax,"[2]; in vivo, PO 1.0 mg/kg",3.3 µM
same,Tmax,"[2]; in vivo, PO 1.0 mg/kg",48 min
same,AUC,"[2]; in vivo, PO 1.0 mg/kg, read-out: AUC PO",12.8 µM·h
same,clearance,"[2]; in vivo, iv 0.5 mg/kg",2.7 mL/min/kg
same,bioavailability,"[2]; in vivo, iv 0.5 mg/kg, PO 1.0 mg/kg, read-out: Oral BA (% F)",94%
same,AUC,"[2]; in vivo, iv 0.5 mg/kg, read-out: AUC iv",6.2 µM·h
same,Vd,"[2]; in vivo, iv 0.5 mg/kg, read-out: Vss",1.7 L/kg
same,T1/2term.,[3],1.8 h
same,Cmax,"[3]; mouse, in vivo, PO 2.0 mg/kg",1900 nM
same,Tmax,"[3]; mouse, in vivo, PO 2.0 mg/kg",1 h
same,AUC,"[3]; mouse, in vivo, PO 2.0 mg/kg, read-out: AUC PO",7.2 µM·h
same,clearance,"[3]; mouse, in vivo, iv 1.0 mg/kg",12.7 mL/min/kg
same,bioavailability,"[3]; mouse, in vivo, iv 1.0 mg/kg, PO 2.0 mg/kg, read-out: Oral BA (% F)",100%
same,AUC,"[3]; mouse, in vivo, iv 1.0 mg/kg, read-out: AUC iv",2.9 µM·h
same,Vd,"[3]; mouse, in vivo, iv 1.0 mg/kg, read-out: Vss",1.5 L/kg
same,T1/2term.,[4],1.2 h
same,Cmax,"[4]; in vivo, PO 2.0 mg/kg",2600 nM
same,Tmax,"[4]; in vivo, PO 2.0 mg/kg",2 h
same,AUC,"[4]; in vivo, PO 2.0 mg/kg, read-out: AUC PO",10.2 µM·h
same,clearance,"[4]; in vivo, iv 1.0 mg/kg",4.9 mL/min/kg
same,bioavailability,"[4]; in vivo, iv 1.0 mg/kg, PO 2.0 mg/kg, read-out: Oral BA (% F)",65%
same,AUC,"[4]; in vivo, iv 1.0 mg/kg, read-out: AUC iv",8 µM·h
same,Vd,"[4]; in vivo, iv 1.0 mg/kg, read-out: Vss",0.75 L/kg
same,pEC50,HBsAg secretion,9.52
same,pEC50,Nav1.5,< 3.30
